Data published in patent US10696674B2, “Spirolactams as inhibitors of ROCK” (BRISTOL-MYERS SQUIBB COMPANY, priority 2016, dated 2020).
Like-named read-outs stand apart in the source and are kept apart here.

Columns and labels:
[1] = test system: ROCK; conditions: long term treatment; cited from earlier work
[2] = test system: ROCK; conditions: rat, in vivo; cited from earlier work
[3] = molecular target: ROCK2 (Homo sapiens, UniProt O75116); experiment: ROCK2 assay (Caliper LABCHIP peptide phosphorylation); type: biochemical; conditions: 5 μM ATP, 1.5 μM peptide substrate
Chain of ROCK2 (O75116 whole entry, species assumed): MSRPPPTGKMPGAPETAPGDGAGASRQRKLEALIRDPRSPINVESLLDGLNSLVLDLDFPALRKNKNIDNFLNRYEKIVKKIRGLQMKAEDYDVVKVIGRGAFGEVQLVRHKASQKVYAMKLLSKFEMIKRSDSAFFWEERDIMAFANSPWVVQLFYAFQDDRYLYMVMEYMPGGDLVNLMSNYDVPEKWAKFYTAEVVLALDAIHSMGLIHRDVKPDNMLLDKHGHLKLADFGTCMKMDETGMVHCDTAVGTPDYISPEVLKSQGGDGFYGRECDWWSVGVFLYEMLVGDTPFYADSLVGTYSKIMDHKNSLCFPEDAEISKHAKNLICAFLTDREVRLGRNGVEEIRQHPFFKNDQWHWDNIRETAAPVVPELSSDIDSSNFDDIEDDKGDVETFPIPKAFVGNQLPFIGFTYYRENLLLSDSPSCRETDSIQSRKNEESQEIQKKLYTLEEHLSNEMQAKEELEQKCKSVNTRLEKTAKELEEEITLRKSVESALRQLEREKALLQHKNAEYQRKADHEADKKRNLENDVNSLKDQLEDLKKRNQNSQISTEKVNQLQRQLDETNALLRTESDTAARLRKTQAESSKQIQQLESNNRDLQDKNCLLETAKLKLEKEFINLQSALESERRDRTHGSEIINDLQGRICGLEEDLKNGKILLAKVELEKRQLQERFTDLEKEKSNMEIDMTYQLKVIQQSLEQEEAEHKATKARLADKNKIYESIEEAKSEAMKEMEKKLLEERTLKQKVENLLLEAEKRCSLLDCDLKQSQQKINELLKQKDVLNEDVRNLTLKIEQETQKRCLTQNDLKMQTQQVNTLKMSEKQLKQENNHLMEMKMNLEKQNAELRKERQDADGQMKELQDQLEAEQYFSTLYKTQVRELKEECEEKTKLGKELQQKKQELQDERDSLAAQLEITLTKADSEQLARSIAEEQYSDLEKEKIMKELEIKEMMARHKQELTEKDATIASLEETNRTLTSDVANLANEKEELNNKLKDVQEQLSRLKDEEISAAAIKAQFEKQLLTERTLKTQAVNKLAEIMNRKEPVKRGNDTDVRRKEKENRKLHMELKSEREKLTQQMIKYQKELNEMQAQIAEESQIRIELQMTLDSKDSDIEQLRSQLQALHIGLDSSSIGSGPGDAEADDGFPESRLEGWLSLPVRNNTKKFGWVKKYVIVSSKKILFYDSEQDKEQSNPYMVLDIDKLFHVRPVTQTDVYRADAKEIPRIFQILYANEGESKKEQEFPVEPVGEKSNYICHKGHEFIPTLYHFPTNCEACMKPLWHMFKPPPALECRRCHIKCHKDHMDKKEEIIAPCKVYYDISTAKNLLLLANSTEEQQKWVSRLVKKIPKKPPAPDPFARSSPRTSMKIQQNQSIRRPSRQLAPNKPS
Description: The effectiveness of compounds of the present invention as ROCK inhibitors can be determined in a 30 μL assay containing 20 mM HEPES, pH 7.5, 20 mM MgCl2, 0.015% Brij-35, 4 mM DTT, 5 μM ATP and 1.5 μM peptide substrate (FITC-AHA-AKRRRLSSLRA-OH) (SEQ ID NO.1). Compounds were dissolved in DMSO so that the final concentration of DMSO was <2%, and the reaction was initiated with Rho kinase variants. After incubation, the reaction was terminated by the addition of EDTA and the phosphorylated and non-phosphorylated peptides separated using a LABCHIP® 3000 Reader (Caliper Life Sciences). […] Compounds were tested in dose-response format, and the inhibition of kinase activity was calculated at each concentration of compound. The inhibition data were fit using a curve-fitting program to determine the IC50; i.e., the concentration of compound required to inhibit 50% of kinase activity.
Representative Examples were tested in the ROCK2 assay described above and found having ROCK2 inhibitory activity. The ranges of the ROCK2 IC50 values are as follows: ROCK2 IC50: ++++ (<3 nM) +++ (3-30 nM) ++ (30-300 nM) + (300-2000 nM)

[4] = test system: ROCK; conditions: rat, in vivo; cited from earlier work; remark: listed apart in the source
[5] = test system: ROCK; conditions: rats, balloon injury model; cited from earlier work
[6] = test system: ROCK; conditions: cited from earlier work

| Structure (SMILES) | IC50 [3] | further results |
| --- | --- | --- |
| O=S(=O)(c1cccc2cnccc12)N1CCCNCC1 [fasudil] |  | coronary constrictive remodeling [1]: promote a regression of coronary constrictive remodeling; coronary stenosis [1]: progressively reduce coronary stenosis; infarct size and neurologic deficit [2]: reduce both the infarct size and neurologic deficit |
| O=C1N(c2ccc(-c3cn[nH]c3)cc2)CC(CO)[C@]12Cc1ccccc1N2 (stereo partly drawn) [Example 55, (2R)-1′-(4-(1H-pyrazol-4-yl)phenyl)-4′-(hydroxymethyl)spiro[indoline-2,3′-pyrrolidin]-2′-one] | 30 to 300 nM |  |
| COc1nc(N2CCC3(Cc4ccccc4C3)C2=O)ccc1-c1cn[nH]c1 [Example 23, 1′-(6-Methoxy-5-(1H-pyrazol-4-yl)pyridin-2-yl)-1,3-dihydrospiro[indene-2,3′-pyrrolidin]-2′-one] | < 3 nM |  |
| COc1ccc2c(c1)CC1(CCN(c3ccc(-c4cn[nH]c4)cc3)C1=O)C2 (single isomer, unassigned) [Example 22, 1′-(4-(1H-Pyrazol-4-yl)phenyl)-5-methoxy-1,3-dihydrospiro[indene-2,3′-pyrrolidin]-2′-one] | < 3 nM |  |
| NCC1CN(c2ccc(-c3cn[nH]c3)cc2)C(=O)C12Cc1ccccc1N2 (stereo not drawn) [Example 53, 1′-(4-(1H-pyrazol-4-yl)phenyl)-4′-(aminomethyl)spiro[indoline-2,3′-pyrrolidin]-2′-one] | < 3 nM |  |
| CC1(C)c2ccccc2NC12CCN(c1ccc(-c3cn[nH]c3)cc1)C2=O (stereo not drawn) [Example 51, 1′-(4-(1H-pyrazol-4-yl)phenyl)-3,3-dimethylspiro[indoline-2,3′-pyrrolidin]-2′-one] | < 3 nM |  |
| COc1nc(N2CCC3(Cc4ccc(F)cc4C3)C2=O)ccc1-c1cn[nH]c1 (single isomer, unassigned) [Example 18, 5-Fluoro-1′-(6-methoxy-5-(1H-pyrazol-4-yl)pyridin-2-yl)-1,3-dihydrospiro[indene-2,3′-pyrrolidin]-2′-one] | 3 to 30 nM |  |
| COc1ccc2c(c1)NC1(CCN(c3ccc(-c4cn[nH]c4)cc3)C1=O)C2 (single isomer, unassigned) [Example 6, 1′-(4-(1H-Pyrazol-4-yl)phenyl)-6-methoxyspiro[indoline-2,3′-pyrrolidin]-2′-one] | 3 to 30 nM |  |
| COc1ccc2c(c1)N(C)C1(CCN(c3ccc(-c4cn[nH]c4)cc3)C1=O)C2 (stereo not drawn) [Example 14, 1′-(4-(1H-Pyrazol-4-yl)phenyl)-6-methoxy-1-methylspiro[indoline-2,3′-pyrrolidin]-2′-one] | 30 to 300 nM |  |
| C[C@@H](N)[C@H]1CC[C@H](C(=O)Nc2ccncc2)CC1 [Example Y-27632, Y-27632] |  | ventricular hypertrophy, fibrosis and function [4]: improve ventricular hypertrophy, fibrosis and function; neointimal formation [5]: inhibited neointimal formation; blood pressure ([6]; control rats): only a minor effect on blood pressure; blood pressure ([6]; spontaneously hypertensive rat, renal hypertensive rat and deoxycortisone acetate salt hypertensive rat models): significantly decrease blood pressure |
| COc1ccc2c(c1)CC1(CCN(c3ccc(-c4cn[nH]c4)cc3)C1=O)O2 (single isomer, unassigned) [Example 26, 1′-(4-(1H-Pyrazol-4-yl)phenyl)-5-methoxy-3H-spiro[benzofuran-2,3′-pyrrolidin]-2′-one] | < 3 nM |  |
| COc1ccc2c(c1)CC1(CCN(c3ccc(-c4cn[nH]c4)cc3)C1=O)O2 (single isomer, unassigned) [Example 25, 1′-(4-(1H-Pyrazol-4-yl)phenyl)-5-methoxy-3H-spiro[benzofuran-2,3′-pyrrolidin]-2′-one] | 30 to 300 nM |  |
| COc1ccc2c(c1)CC1(CCN(c3ccc(-c4cn[nH]c4)cc3)C1=O)N2 (stereo not drawn) [Example 12, 1′-(4-(1H-Pyrazol-4-yl)phenyl)-5-methoxyspiro[indoline-2,3′-pyrrolidin]-2′-one] | 30 to 300 nM |  |
| O=C1N(c2ccc(-c3cn[nH]c3)cc2)CC(CO)[C@@]12Cc1ccccc1N2 (stereo partly drawn) [Example 54, (2S)-1′-(4-(1H-pyrazol-4-yl)phenyl)-4′-(hydroxymethyl)spiro[indoline-2,3′-pyrrolidin]-2′-one] | < 3 nM |  |
| COc1ccc2c(c1)CC1(CCN(c3ccc(-c4cn[nH]c4)c(OC)n3)C1=O)C2 (single isomer, unassigned) [Example 20, 5-Methoxy-1′-(6-methoxy-5-(1H-pyrazol-4-yl)pyridin-2-yl)-1,3-dihydrospiro[indene-2,3′-pyrrolidin]-2′-one] | < 3 nM |  |
| O=C1N(c2ccc(-c3ccncc3)cc2)CCC12Cc1ccccc1N2 (stereo not drawn) [Example 45, 1′-(4-(Pyridin-4-yl)phenyl)spiro[indoline-2,3′-pyrrolidin]-2′-one] | 3 to 30 nM |  |
| O=C1N(c2ccc(-c3cn[nH]c3)cc2)CCC12Cc1ccc(F)cc1C2 (single isomer, unassigned) [Example 15, 1′-(4-(1H-Pyrazol-4-yl)phenyl)-5-fluoro-1,3-dihydrospiro[indene-2,3′-pyrrolidin]-2′-one] | 3 to 30 nM |  |
| COc1cc(F)c2c(c1)NC1(CCN(c3ccc(-c4cn[nH]c4)cc3)C1=O)C2 (racemic) [Example 38, 1′-(4-(1H-Pyrazol-4-yl)phenyl)-4-fluoro-6-methoxyspiro[indoline-2,3′-pyrrolidin]-2′-one] | < 3 nM |  |
| COc1ccc2c(c1)CC1(CCN(c3ccc(-c4cn[nH]c4)c(OC)n3)C1=O)C2 (single isomer, unassigned) [Example 19, 5-Methoxy-1′-(6-methoxy-5-(1H-pyrazol-4-yl)pyridin-2-yl)-1,3-dihydrospiro[indene-2,3′-pyrrolidin]-2′-one] | 300 to 2000 nM |  |
